Data taken from US20230091810A1, “FIRST-IN-CLASS OF SHMT2 AND MTHFD2 INHIBITORS AS ANTITUMOR AGENTS” (Duquesne University of the Holy Spirit, priority 2017, published 2023).
Like-named read-outs stand apart in the source and are kept apart here.

Key:
RT16 (FR alpha) (CHO) = assay: proliferation assay, RT16 CHO cells expressing FR alpha only; type: cell-based, Chinese hamster; conditions: folate-/glycine-free RPMI1640 with 25 nM leucovorin, 96 h, read-out: IC50s (SE) RT16 (FR alpha) (CHO)
Description: (§1) Proliferation assays were performed with engineered Chinese hamster ovary (CHO) cell lines R2 (transporter-null), PC43-10 (expresses RFC only), RT16 (FRα only), and R2/PCFT4 (PCFT only) cultured in folate-/glycine-free RPMI1640 supplemented with 25 nM leucovorin. Additional results are shown for HCT116 (colon tumor cells (CTC)), IGROV1 (epithelial ovarian cancer (EOC) cells), H460 (non-small cell lung cancer (NSCLC) cells), MIAPaCa-2 (pancreatic cancer (PaC) cells), and HPAC (PaC).
(§2) For proliferation assays with the CHO cell lines, the cells were treated with drugs (0-1 µM) in a 96-well plate (2000 cells/well) in glycine-free, nucleoside-free folate-free RPMI supplemented with 10% dialyzed fetal bovine serum, 1% penicillin/streptomycin, 2 mM L-glutamine, and 25 nM leucovorin (final volume 200 µL) over a 96 h incubation period at 37° C. with 5% CO2. The drugs were dissolved in DMSO; an equivalent amount of DMSO was added to the control (no addition) samples. To quantify viable cells, the media was removed and plates were washed once with 100 µL Dulbecco’s Phosphate-Buffered Saline (PBS), after which 100 µL PBS and 20 µL Cell Titer-blue (Promega) were added. Relative cell numbers were proportional to the fluorescence measured with a fluorescence plate reader (590 nm emission, 560 nm excitation). Background fluorescence (cell-free wells treated with Cell Titer-blue) was subtracted and these corrected values were normalized to results for cells treated in an identical manner without drugs.

IGROV1 (EOC) = assay: proliferation assay, IGROV1 epithelial ovarian cancer cells; type: cell-based, human; conditions: folate-/glycine-free RPMI1640 with 25 nM leucovorin, read-out: IC50s (SE) IGROV1 (EOC)
Description: as §1
For proliferation assays of the HCT116, H460, and MIA PaCa2 tumor cell lines, the cells were plated in 96-well plates in an identical manner to the CHO experiments, except that the maximal drug concentration was increased to 10 µM. Glycine/nucleoside protection experiments in CHO and tumor cell lines were performed in folate- and glycine-free RPMI 1640/10% dialyzed fetal bovine serum supplemented with 25 nM leucovorin without additions, or in the presence of adenosine (60 µM), thymidine (10 µM), glycine (130 µM) and/or 5-aminoimidazole-4-carboxamide (AICA) (320 µM). Growth of metabolite-treated cells was normalized to controls treated with metabolites and vehicle (i.e., DMSO) both singly and in combination. Treatments with all metabolites were performed in parallel on the same plate for a given drug.

PC43-10 (RFC) (CHO) = assay: proliferation assay, PC43-10 CHO cells expressing RFC only; type: cell-based, Chinese hamster; conditions: folate-/glycine-free RPMI1640 with 25 nM leucovorin, 96 h, drug 0-1000 nM, read-out: IC50s (SE) PC43-10 (RFC) (CHO)
Description: as §1
Cell culture and proliferation/protection assays. The HCT116 cell lines including the serine hydroxymethyltransferase (SHMT) 1, SHMT2, and methylene THF dehydrogenase 2 (MTHFD2) knockout (KO) cells were previously described (47,53). The H460 cell line was obtained from the American Type Culture Collection (Manassas, VA), whereas the MIA PaCa-2 cells were provided by Dr. Yubin Ge (Karmanos Cancer Institute). Cell lines were verified by STR analysis by Genetica DNA Laboratories (Burlington, NC). MTXRIIOua^R2-4 (i.e. R2) Chinese hamster ovary (CHO) cells were generously provided by Dr. Wayne Flintoff (University of Western Ontario) (54). From this parental R2 cell line, human RFC and PCFT were individually transfected to generate the isogenic CHO cell lines designated PC43-10 (RFC) and R2/PCFT4 (PCFT) (55-57). Human tumor cell lines were cultured in folate-free RPMI supplemented with 10% dialyzed fetal bovine serum (Sigma-Aldrich), 1% penicillin/streptomycin solution, 2 mM L-glutamine, and 25 nM leucovorin in a humidified atmosphere at 37° C. in the presence of 5% CO2 and 95% air. The CHO cell lines were cultured in alpha-minimal essential medium (alpha-MEM) supplemented with 10% bovine calf serum, 1% penicillin/streptomycin solution, and 2 mM L-glutamine. Additionally, the transfected CHO cell lines (i.e. R2/PCFT4 and PC43-10) were maintained under continuous selection with 1 mg/ml of G418.
as §2, with “The drugs were dissolved in DMSO; an equivalent amount of DMSO was added to the control (no addition) samples.” left out

(2-amino-4-oxo-3,4-dihydro-5H-pyrrolo[3,2-d]pyrimidin-5-yl)butyl)-2-fluorobenzoyl)-L-glutamic acid [AGF347]
IC50 (RT16 (FR alpha) (CHO)): 9.4 nM
IC50 (IGROV1 (EOC)): 62 nM
IC50 (PC43-10 (RFC) (CHO)): 224 nM

Nc1nc2ccn(CCCc3ccc(C(=O)N[C@@H](CCC(=O)O)C(=O)O)cc3)c2c(=O)[nH]1 [AGF291]
IC50 (RT16 (FR alpha) (CHO); Cricetulus griseus, RT16): 117 nM
IC50 (IGROV1 (EOC); Homo sapiens, IGROV-1): 443 nM
IC50 (PC43-10 (RFC) (CHO); Cricetulus griseus, PC43-10): 454 nM

Nc1nc2ccn(CCCCCc3ccc(C(=O)N[C@@H](CCC(=O)O)C(=O)O)s3)c2c(=O)[nH]1 [AGF320]
IC50 (RT16 (FR alpha) (CHO)): 156 nM
IC50 (IGROV1 (EOC)): 401 nM
IC50 (PC43-10 (RFC) (CHO)): > 1000 nM
